One assay addresses T1, aggregated tau46 (Homo sapiens, UniProt P10636).
T1 construct: made in house; host or cells: E. coli
Description: Saturation binding assay, protocol 2a, tau46 fibrils. To be noted: saturation assay protocol 2a, [3H]-labeled compound. As for the experimental part: (§1) Alpha-synuclein and tau46 were purified from E. coli according to established protocols (Nuscher B, et al., J. Biol. Chem., 2004; 279(21):21966-75), Aβ1-42 was obtained from rPeptide, Watkinsville, Ga., USA. Fibrils were prepared by aggregation of recombinant protein via constant agitation. In detail, 70 μM of alpha-synuclein mixed with 100 mM NaCl in 50 mM Tris, pH 7.0+0.02% NaN3 were incubated at 1,400 rpm, 37° C. for 96 h. 10 μM of tau46 were incubated with 0.03 mg/ml heparin in 50 mM Tris, pH=7.0 at 1,000 rpm, 37° C. for 72 h. Aβ1-42 was solved in 20 mM NaPi, pH=8.0+0.2 mM EDTA+0.02% NaN3 (Deeg A A, et al., Biochim. Biophys. Acta, 2015; 1850(9): 1884-90; Goedert M, et al. Nature, 1996; 383(6600): 550-3).
Sonicated αSYN (0.04 μM) or tau46 (0.4 μM) or Aβ1-42 (6 μM) fibrils diluted in PBS were incubated with decreasing concentrations of [^3H]-labeled compound (48 nM or 24 nM-[…]) in 50 mM Tris-base, 10% ethanol, 0.05% Tween20, pH 7.4. […]
Assay plates were incubated under agitation at 37° C. for 2 h, covered by plastic foil (Resealable tape, PerkinElmer, Waltham, Mass., USA). […] Accumulation of tritium was counted in a liquid scintillation counter (Wallac MicroBeta® TriLux, 1450 LSC & Luminescence Counter, PerkinElmer, Waltham, Mass., USA) immediately. Radioactivity was plotted against the increasing tritium-labeled compound or cold compound concentrations. […]

Another assay concerns the target T2, tau46 (fibrils) (Homo sapiens, UniProt P10636).
T2 construct: made in house; host or cells: E. coli
The assay is described as follows: Competition binding assay, protocol 3a, reference ligand [3H]-compound 1, tau46 fibrils. To be noted: Experiment B, reference ligand [3H]-compound 1 (1 nM). The procedure: as §1
A fixed concentration of sonicated human recombinant αSYN (200 nM/well) or tau46 (208 nM/well) fibrils diluted in phosphate buffered saline (PBS) were incubated in low binding plates (96 well micro test plate, Ratiolab GmbH, Dreieich, Germany) together with 1 nM [^3H]-compound 1 and 1:4 serial dilutions of the cold compound of interest starting from 1 μM diluted in 50 mM Tris-base, 10% EtOH, 0.05% Tween20, pH 7.4. For the calculation of Ki values the KD value of compound 1 toward sonicated human recombinant αSYN fibrils was set to 3 nM.
Assay plates were incubated under agitation at 37° C. for 2 h covered by plastic foil (Resealable tape, PerkinElmer, Waltham, Mass., USA). Prior to harvesting, a filter (Printed filtermat B, PerkinElmer, Waltham, Mass., USA) was incubated with 5 mg/mL polyethylenimine (PEI, Poly(ethyleneimine) solution, Sigma Aldrich Chemie GmbH, Taufkirchen, Germany) at 4° C. for 30 min. After incubation, bound and free ligands were separated by vacuum filtration using a harvester (Filtermate harvester, PerkinElmer, Waltham, Mass., USA). The filter was washed three times with buffer cooled to 4° C. and subsequently dried in the microwave for 2 min at medium power. The filter was sealed in a plastic bag (Sample bag for MicroBeta®, PerkinElmer, Waltham, Mass., USA) together with added scintillator (BETAPLATE SCINT, PerkinElmer, Waltham, Mass., USA). Accumulation of tritium was counted in a liquid scintillation counter (Wallac MicroBeta® TriLux, 1450 LSC & Luminescence Counter, PerkinElmer, Waltham, Mass., USA) immediately. Radioactivity was plotted against the increasing tritium-labeled compound or cold compound concentrations. Data points were fitted using nonlinear regression analysis in GraphPad Prism (GraphPad Software, Inc., Version 7.03, La Jolla, Calif., USA).
The fibril competition assay provides Ki values. Ki is a quantitative measure that represents the concentration of the non-radioactive tested compound (competitor ligand) required to replace 50% of a reference compound, in this case [H]-compound 1 (1 nM) or [H]-compound 2 (1 nM), which is bound to the target structures (1 nM), in our case recombinant alpha-synuclein and tau46 fibrils. This assay is suitable for a screening of non-radioactive ligands.

Assay [1] addresses T3, alpha-synuclein (sonicated fibrils) (Homo sapiens, UniProt P37840).
T3 construct: made in house; host or cells: E. coli
The assay is described as follows: Modified competition binding assay, protocol 3b, reference ligand [3H]-compound 2. As to conditions: Table 5, reference ligand [3H]-compound 2 (1 nM). The essentials: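 Sonicated recombinant human αSYN fibrils (15 nM/well) incubated with 1 nM [3H]-compound 2 and serially diluted unlabeled competitor in 30 mM Tris-HCl, 10% ethanol, 0.05% Tween20, pH 7.4, 4.5 h at RT. Filtration readout; IC50 by non-linear regression, Ki calculated using KD 0.2 nM.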

Where only a bound is given, the exact number is not on record here.

T1 sequence (P10636 1-412 isoform P10636-7): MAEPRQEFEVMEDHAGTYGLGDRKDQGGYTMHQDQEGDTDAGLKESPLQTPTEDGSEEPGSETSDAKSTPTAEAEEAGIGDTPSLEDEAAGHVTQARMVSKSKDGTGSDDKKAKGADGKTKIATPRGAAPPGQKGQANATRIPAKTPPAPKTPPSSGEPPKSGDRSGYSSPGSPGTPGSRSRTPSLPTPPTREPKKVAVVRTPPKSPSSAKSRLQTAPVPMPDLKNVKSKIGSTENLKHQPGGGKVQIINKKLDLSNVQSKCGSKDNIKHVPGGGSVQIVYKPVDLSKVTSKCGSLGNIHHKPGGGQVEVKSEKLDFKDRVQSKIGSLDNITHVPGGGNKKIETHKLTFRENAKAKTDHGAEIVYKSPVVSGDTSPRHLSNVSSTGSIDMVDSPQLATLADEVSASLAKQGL
T2 sequence (P10636 1-412 isoform P10636-7): as above

In general, Kd refers to the equilibrium constant for the complex coming apart. A low value points to tighter binding. A word on the Ki: it is the dissociation constant of the complex between target and ligand, obtained from inhibition or displacement. `CNc1ccc(-c2cc(-c3ccnc(Br)c3)[nH]n2)cc1` [Compound 2, 4-[5-(2-bromopyridin-4-yl)-1H-pyrazol-3-yl]-N-methylaniline]: the equilibrium dissociation constant (Kd) on aggregated tau46 was above 15 nM. Besides, the Ki at tau46 (fibrils) turned out to be 9 nM. With `Fc1cc(-c2cc(-c3ccc4c(c3)OCO4)n[nH]2)ccn1` [Compound 12, 4-[3-(1,3-benzodioxol-5-yl)-1H-pyrazol-5-yl]-2-fluoropyridine], the Ki in assay [1] is 3.4 nM.

As to `CN(C)c1ccc(-c2cc(-c3ccnc(Br)c3)[nH]n2)cc1` [Compound 1, 4-[3-(4-dimethylamino-phenyl)-1H-pyrazol-5-yl]-2-bromopyridine], the Kd on aggregated tau46 is above 5 nM. Besides, the Ki in assay [1] worked out at 0.1 nM.
